Test results: ChEMBL document CHEMBL6134901 (J Med Chem, 2025)

test system: Clostridioides difficile; assay: Antibacterial activity against Clostridium difficile ATTC43255 assessed as spore germination inhibition at 45 uM incubated for 60 mins by spectrometry relative to control; format: functional; conditions: ATTC43255, 1 h

| Compound | inhibition at 45 µM [%] |
| --- | --- |
| Nc1ccc(-c2nc(-c3ccc(Oc4ccc(C(F)(F)F)cc4)cc3)no2)cc1F | < 10 |
| CC(C)(C)OC(=O)NCc1ccc(-c2nc(-c3ccc(Oc4ccc(F)c(F)c4)cc3)no2)cc1 | < 10 |
| O=C1C[C@H](c2nc(-c3ccc(Oc4ccc(C(F)(F)F)cc4)cc3)no2)CN1 | < 10 |
| FC(F)(F)c1ccc(Oc2ccc(-c3noc(-c4n[nH]cc4Cl)n3)cc2)cc1 | < 10 |
| COc1ccc(-c2noc(-c3ccc(O)cc3)n2)cc1OC | < 10 |
| O=C(Nc1c[nH]nc1-c1nc(-c2ccc(Oc3ccc(C(F)(F)F)cc3)cc2)no1)c1ccccc1 | < 10 |
| FC(F)(F)c1ccc(Oc2ccc(-c3noc(-c4c[nH]cn4)n3)cc2)cc1 | < 10 |
| Nc1c[nH]nc1-c1nc(-c2ccc(Oc3ccc(C(F)(F)F)cc3)cc2)no1 | < 10 |
| Oc1ccc(-c2nc(-c3ccc(Oc4ccc(C(F)(F)F)cc4)cc3)no2)cc1 | 14 |
| NCc1ccc(-c2nc(-c3ccc(OC4CCCC4)cc3)no2)cc1 | 41 |
| CCN(CC)CCc1nc(-c2ccccc2)no1 | < 10 |
| Oc1ccc(-c2nc(-c3ccc(Oc4ccc(C(F)(F)F)cc4)cc3)no2)cc1F | 14 |
| N#Cc1ccc(-c2nc(-c3ccc(OC4CCCC4)cc3)no2)cc1 | < 10 |
| Nc1cc(Oc2ccccc2)ccc1-c1noc(-c2ccc(O)cc2)n1 | 17 |
| O=C1C[C@@H](c2nc(-c3ccc(Oc4ccc(C(F)(F)F)cc4)cc3)no2)CN1 | < 10 |
| Oc1ccc(-c2nc(-c3ccc(Oc4ccccc4CBr)cc3)no2)cc1 | 27 |
| NCc1ccc(-c2nc(-c3ccc(Oc4ccc(C(F)(F)F)cc4)cn3)no2)cc1 | 24 |
| C#CCOc1ccc(-c2noc(-c3ccc(O)cc3)n2)cc1 | < 10 |
| O=[N+]([O-])c1cn(CCO)c(-c2nc(-c3ccc(OC4CCCC4)cc3)no2)n1 | < 10 |
| CC(C)Oc1ncc(-c2nc(-c3cccc4c3ccn4CCCC(=O)O)no2)cc1Cl [GSK-2018682] | < 10 |
| COc1cc(-c2nc(-c3ccc(Oc4ccc(C(F)(F)F)cc4)cc3)no2)ccc1O | < 10 |
| CC(C)(C)OC(=O)N1CCC(Nc2c[nH]nc2-c2nc(-c3ccc(Oc4ccc(C(F)(F)F)cc4)cc3)no2)CC1 | < 10 |
| Oc1ccc(-c2nc(-c3ccc(OC4CCOC4)cc3)no2)cc1 (stereo unspecified) | < 10 |
| NCCCOc1ccc(-c2noc(-c3ccc(O)cc3)n2)cc1 | < 10 |

| Compound | inhibition at 45 µM [%] |
| --- | --- |
| Oc1ccc(-c2nc(-c3ccc(Oc4ccc(C(F)(F)F)cc4)cc3)no2)cn1 | < 10 |
| Nc1ccc(-c2noc(-c3ccc(O)cc3)n2)cc1 | < 10 |
| CCCCOc1ccc(-c2noc(-c3ccc(O)cc3)n2)cc1 | < 10 |
| CN1CCN(c2ccc(-c3noc(-c4ccc(O)cc4)n3)cc2)CC1 | < 10 |
| O=C(O)c1ccc(-c2nc(-c3ccc(OC4CCCC4)cc3)no2)cc1 | < 10 |
| O=[N+]([O-])c1c[nH]c(-c2nc(-c3ccc(Oc4ccc(C(F)(F)F)cc4)cc3)no2)c1 | < 10 |
| Oc1ccc(-c2nc(-c3ccc4oc5ccc(F)cc5c4c3)no2)cc1 | < 10 |
| FC(F)(F)c1ccc(Oc2ccc(-c3noc(-c4ccc5[nH]ccc5c4)n3)cc2)cc1 | < 10 |
| Oc1ccc(-c2nc(N3CCN(c4cccc(Cl)c4)CC3)no2)cc1 | < 10 |
| Oc1ccc(-c2nc(N3CCN(c4ccccc4)CC3)no2)cc1 | 18 |
| FC(F)(F)c1ccc(Oc2ccc(-c3noc(-c4cc5ccccc5[nH]4)n3)cc2)cc1 | < 10 |
| Oc1ccc(-c2nc(-c3ccc(O[C@@H]4CCNC4)cc3)no2)cc1 | < 10 |
| CNCc1ccc(-c2nc(-c3ccc(OC4CCCC4)cc3)no2)cc1 | 37 |
| c1cc(-c2noc(-c3ccc4c(c3)CCN4)n2)ccc1OC1CCCC1 | < 10 |
| COc1ccc(-c2nc(-c3ccc(Oc4ccc(C(F)(F)F)cc4)cc3)no2)cc1OC | < 10 |
| NCc1ccc(-c2nc(-c3ccc(OC4CCCCC4)cc3)no2)cc1 | 43 |
| O=[N+]([O-])c1cc(Oc2ccc(C(F)(F)F)cc2)cnc1-c1noc(-c2ccc(O)cc2)n1 | < 10 |
| c1nc2cc(-c3nc(-c4ccc(OC5CCCC5)cc4)no3)ccc2[nH]1 | < 10 |
| COc1ccc(-c2nc(-c3ccc(OC4CCCC4)cc3)no2)cc1 | < 10 |
| CCC(C)Nc1c[nH]nc1-c1nc(-c2ccc(Oc3ccc(C(F)(F)F)cc3)cc2)no1 (stereo unspecified) | < 10 |
| O=C(O)c1cccc(-c2noc(-c3ccccc3F)n2)c1 | < 10 |
| NCc1ccc(-c2nc(-c3ccc(OC4CCC4)cc3)no2)cc1 | 24 |
| FC(F)(F)c1ccc(Oc2ccc(-c3noc(-c4n[nH]c5ccccc45)n3)cc2)cc1 | < 10 |
| CS(=O)(=O)Nc1ccc(-c2nc(-c3ccc(OC4CCCC4)cc3)no2)cc1 | < 10 |

| Compound | inhibition at 45 µM [%] |
| --- | --- |
| FC(F)(F)c1ccc(Oc2ccc(-c3noc(-c4ccncc4)n3)cc2)cc1 | < 10 |
| FC(F)(F)c1ccc(Oc2ccc(-c3noc(-c4n[nH]cc4NC4CCCCC4)n3)cc2)cc1 | < 10 |
| O=Cc1ccc(-c2noc(-c3ccc(O)cc3)n2)cc1 | < 10 |
| NCc1ccc(-c2nc(-c3ccc(Oc4ccc(C(F)(F)F)cc4)cc3)no2)cc1 | 41 |
| NCc1ccc(-c2nc(-c3ccc(Oc4ccc(F)c(F)c4)cc3)no2)cc1 | 44 |
| OCC#Cc1c[nH]nc1-c1nc(-c2ccc(Oc3ccc(C(F)(F)F)cc3)cc2)no1 | < 10 |
| Oc1ccc(-c2nc(-c3ccc(Oc4ccc(C(F)(F)F)cc4)nc3)no2)cc1 | < 10 |
| CC(C)Cc1ccc(-c2nc(-c3ccc(CN4CC(C(=O)O)C4)cc3)no2)cc1 | < 10 |
| N#Cc1ccc(-c2nc(-c3ccc(Oc4ccc(F)cc4)cc3)no2)cc1 | < 10 |
| CCCOc1ccc(-c2noc(-c3ccc(O)cc3)n2)cc1 | < 10 |
| NCc1ccc(-c2nc(-c3ccnc(N4CCCC4)c3)no2)cc1 | 13 |
| Oc1ccc(-c2noc(-c3ccc(O)cc3)n2)cc1 | < 10 |
| Nc1ccc(-c2nc(-c3ccc(OC4CCCC4)cc3)no2)cc1 | < 10 |
| COc1ccc(-c2nc(-c3ccc(Oc4ccc(C(F)(F)F)cc4)cc3)no2)cc1[N+](=O)[O-] | < 10 |
| FC(F)(F)c1ccc(Oc2ccc(-c3noc(-c4nc[nH]n4)n3)cc2)cc1 | < 10 |
| N#Cc1ccc(Oc2ccc(-c3noc(-c4ccc(O)cc4)n3)cc2)cc1 | < 10 |
| CCCCOc1ccc(-c2noc(-c3ccc(CNC(=O)OC(C)(C)C)cc3)n2)cc1 | < 10 |
| Oc1ccc(-c2nc(-c3ccc(OC(F)(F)F)cc3)no2)cc1 | < 10 |
| NCc1ccc(-c2nc(-c3ccc(O[C@@H]4CCNC4)cc3)no2)cc1 | < 10 |
| O=[N+]([O-])c1ccccc1Oc1ccc(-c2noc(-c3ccc(O)cc3)n2)cc1 | 21 |
| O=[N+]([O-])c1c[nH]c(-c2nc(-c3ccc(OC4CCCC4)cc3)no2)n1 | < 10 |
| CCOc1ccc(-c2nc(-c3cccc4c3CCC4NCCO)no2)cc1OCC (stereo unspecified) | < 10 |
| FC(F)(F)c1ccc(Oc2ccc(-c3noc(-c4c[nH]c5ncccc45)n3)cc2)cc1 | < 10 |
